According to patent US11180521B2, “Nicotinamide riboside analogs, pharmaceutical compositions, and uses thereof” (Metro International Biotech, LLC, priority 2018, dated 2021):

Experiments:
[1] = PK/PD duration of effect study, single oral gavage dose: administered compound level in liver; format: in vivo, C57BL/6 mice; set-up: key to transcyclohexyl NaR dimer concentration: BQL: Below quantitation limit; BDL: Below Detection Limit, No Peak Detected
Description: (§1) Transcyclohexyl nicotinic acid riboside (NaR) dimer was administered by oral gavage at a dose of 500 mg/kg in an Ethanol/PBS, pH 7.4/PEG400 (10/30/60) vehicle. The dosing volume was 5 ml/kg at a solution concentration of 100 mg/ml. The solution concentration was increased for the presence of counterion.
(§2) Animals were fasted for 16 hours prior to dosing. Samples were collected pre-dose and at 0.25, 0.75, 1, 2, 4, 8 and 24 hr post dosing. Following euthanasia, the entire liver and skeletal muscle (gastrocnemius with attached soleus muscle, bilateral) were rinsed with 0.9% saline, and frozen for later bioanalysis. Samples were maintained frozen at −80° C. until bioanalysis.
(§3) Samples were thawed, homogenized, extracted and analyzed by LC-MS on the same day. The LC used was a Shimadzu Nexera UPLC, and the mass spectrometer was an AB Sciex Qtrap 6500. Specimens were analyzed for levels of administered compound (transcyclohexyl NaR dimer), as well as for levels of NAD, NAAD, NAM, and NMN by the method of standard addition, to detect alterations from the basal levels of the analytes. Calibration standards for quantifying administered compound were prepared using transcyclohexyl NaR dimer in mouse liver or skeletal muscle homogenates. Corresponding standards for quantifying other metabolites were also prepared. Data are calculated as the mean concentration from n=6 animals per time point.

[2] = system: NAD, NAAD, NAM, and NMN levels in liver; test: PK/PD duration of effect study, single oral gavage dose: NAD, NAAD, NAM and NMN levels in liver; format: in vivo, C57BL/6 mice; set-up: key to NAAD concentration: BQL: Below quantitation limit; BDL: Below Detection Limit, No Peak Detected; conditions: for NAAD concentration: pre-dose BDL
Description: as §1, §2, §3

With `CC(=O)OC[C@H]1O[C@@H]([n+]2cccc(C(=O)O[C@H]3CC[C@H](OC(=O)c4ccc[n+]([C@@H]5O[C@H](COC(C)=O)[C@@H](OC(C)=O)[C@H]5OC(C)=O)c4)CC3)c2)[C@H](OC(C)=O)[C@@H]1OC(C)=O` [transcyclohexyl NaR dimer, Transcyclohexyl nicotinic acid riboside (NaR) dimer] the “transcyclohexyl NaR dimer concentration” value ([1]; 0.75 hr after 500 mg/kg oral gavage, pre-dose BQL) was 0.000387 mmol/kg, the “transcyclohexyl NaR dimer concentration” value ([1]; 1 hr after 500 mg/kg oral gavage, pre-dose BQL) was 0.000275 mmol/kg and the “transcyclohexyl NaR dimer concentration” value ([1]; 2 hr after 500 mg/kg oral gavage, pre-dose BQL) was 0.0000706 mmol/kg. For the same compound, the “transcyclohexyl NaR dimer concentration” value ([1]; 4 hr after 500 mg/kg oral gavage, pre-dose BQL) was “BQL”, the “transcyclohexyl NaR dimer concentration” value ([1]; 8 hr after 500 mg/kg oral gavage, pre-dose BQL) was “BQL” and the “transcyclohexyl NaR dimer concentration” value ([1]; 24 hr after 500 mg/kg oral gavage, pre-dose BQL) was “BQL”. The Cmax ([1]; C57BL/6, mouse, 500 mg/kg oral gavage, read-out: Cmax of transcyclohexyl NaR dimer) was 10600 ng/g, the Tmax ([1]; C57BL/6, mouse, 500 mg/kg oral gavage, read-out: tmax of transcyclohexyl NaR dimer) was 15 min and the half-life ([1]; C57BL/6, mouse, 500 mg/kg oral gavage, regression points 0.75, 1, 2 h, read-out: t½ of transcyclohexyl NaR dimer (converted)) was 30.5 min. The concentration at 0.25 h ([1]; C57BL/6, mouse, 0.25 hr after 500 mg/kg oral gavage, pre-dose BQL, read-out: transcyclohexyl NaR dimer concentration) was 10600 ng/g, the concentration at 0.75 h ([1]; C57BL/6, mouse, 0.75 hr after 500 mg/kg oral gavage, pre-dose BQL, read-out: transcyclohexyl NaR dimer concentration) was 327 ng/g and the concentration at 1 h ([1]; C57BL/6, mouse, 1 hr after 500 mg/kg oral gavage, pre-dose BQL, read-out: transcyclohexyl NaR dimer concentration) was 232 ng/g. For the same compound, the concentration at 2 h ([1]; C57BL/6, mouse, 2 hr after 500 mg/kg oral gavage, pre-dose BQL, read-out: transcyclohexyl NaR dimer concentration) was 60 ng/g, the NMN concentration ([2]; 0.25 hr after 500 mg/kg oral gavage, pre-dose 0.00637) was 0.00556 mmol/kg and the NAM concentration ([2]; 0.25 hr after 500 mg/kg oral gavage, pre-dose 0.430) was 0.481 mmol/kg. It also gave an NAD concentration ([2]; 0.25 hr after 500 mg/kg oral gavage, pre-dose 1.08) of 0.938 mmol/kg, an NMN concentration ([2]; 0.25 hr after 500 mg/kg oral gavage, pre-dose 2.13) of 1.86 µg/g and an NAM concentration ([2]; 0.25 hr after 500 mg/kg oral gavage, pre-dose 52.5) of 58.7 µg/g. The NAD concentration ([2]; 0.25 hr after 500 mg/kg oral gavage, pre-dose 713) was 623 µg/g, the NAAD concentration ([2]; 0.25 hr after 500 mg/kg oral gavage) was “BDL” and the NMN concentration ([2]; 0.75 hr after 500 mg/kg oral gavage, pre-dose 0.00637) was 0.00977 mmol/kg. The NAM concentration ([2]; 0.75 hr after 500 mg/kg oral gavage, pre-dose 0.430) was 1.69 mmol/kg, the NAD concentration ([2]; 0.75 hr after 500 mg/kg oral gavage, pre-dose 1.08) was 0.493 mmol/kg and the NMN concentration ([2]; 0.75 hr after 500 mg/kg oral gavage, pre-dose 2.13) was 3.26 µg/g. For the same compound, the NAM concentration ([2]; 0.75 hr after 500 mg/kg oral gavage, pre-dose 52.5) was 206 µg/g, the NAD concentration ([2]; 0.75 hr after 500 mg/kg oral gavage, pre-dose 713) was 327 µg/g and the NAAD concentration ([2]; 0.75 hr after 500 mg/kg oral gavage) was “BDL”. The NMN concentration ([2]; 1 hr after 500 mg/kg oral gavage, pre-dose 0.00637) was 0.00945 mmol/kg, the NAM concentration ([2]; 1 hr after 500 mg/kg oral gavage, pre-dose 0.430) was 1.48 mmol/kg and the NAD concentration ([2]; 1 hr after 500 mg/kg oral gavage, pre-dose 1.08) was 0.575 mmol/kg. For the same compound, the NMN concentration ([2]; 1 hr after 500 mg/kg oral gavage, pre-dose 2.13) was 3.16 µg/g, the NAM concentration ([2]; 1 hr after 500 mg/kg oral gavage, pre-dose 52.5) was 181 µg/g and the NAD concentration ([2]; 1 hr after 500 mg/kg oral gavage, pre-dose 713) was 381 µg/g. For the same compound, the NAAD concentration ([2]; 1 hr after 500 mg/kg oral gavage) was “BDL”, the NMN concentration ([2]; 2 hr after 500 mg/kg oral gavage, pre-dose 0.00637) was 0.00706 mmol/kg and the NAM concentration ([2]; 2 hr after 500 mg/kg oral gavage, pre-dose 0.430) was 0.660 mmol/kg. For the same compound, the NAD concentration ([2]; 2 hr after 500 mg/kg oral gavage, pre-dose 1.08) was 1.19 mmol/kg, the NMN concentration ([2]; 2 hr after 500 mg/kg oral gavage, pre-dose 2.13) was 2.36 µg/g and the NAM concentration ([2]; 2 hr after 500 mg/kg oral gavage, pre-dose 52.5) was 80.6 µg/g. It also gave an NAD concentration ([2]; 2 hr after 500 mg/kg oral gavage, pre-dose 713) of 787 µg/g, an NMN concentration ([2]; 4 hr after 500 mg/kg oral gavage, pre-dose 0.00637) of 0.0146 mmol/kg and an NAM concentration ([2]; 4 hr after 500 mg/kg oral gavage, pre-dose 0.430) of 0.791 mmol/kg. The NAD concentration ([2]; 4 hr after 500 mg/kg oral gavage, pre-dose 1.08) was 2.23 mmol/kg, the NMN concentration ([2]; 4 hr after 500 mg/kg oral gavage, pre-dose 2.13) was 4.87 µg/g and the NAM concentration ([2]; 4 hr after 500 mg/kg oral gavage, pre-dose 52.5) was 96.5 µg/g. It also gave an NAD concentration ([2]; 4 hr after 500 mg/kg oral gavage, pre-dose 713) of 1478 µg/g, an NMN concentration ([2]; 8 hr after 500 mg/kg oral gavage, pre-dose 0.00637) of 0.0250 mmol/kg and an NAM concentration ([2]; 8 hr after 500 mg/kg oral gavage, pre-dose 0.430) of 0.609 mmol/kg. The NAD concentration ([2]; 8 hr after 500 mg/kg oral gavage, pre-dose 1.08) was 4.92 mmol/kg, the NMN concentration ([2]; 8 hr after 500 mg/kg oral gavage, pre-dose 2.13) was 8.34 µg/g and the NAM concentration ([2]; 8 hr after 500 mg/kg oral gavage, pre-dose 52.5) was 74.3 µg/g. It also gave an NAD concentration ([2]; 8 hr after 500 mg/kg oral gavage, pre-dose 713) of 3267 µg/g, an NMN concentration ([2]; 24 hr after 500 mg/kg oral gavage, pre-dose 0.00637) of 0.00459 mmol/kg and an NAM concentration ([2]; 24 hr after 500 mg/kg oral gavage, pre-dose 0.430) of 0.381 mmol/kg. It also gave an NAD concentration ([2]; 24 hr after 500 mg/kg oral gavage, pre-dose 1.08) of 1.10 mmol/kg, an NMN concentration ([2]; 24 hr after 500 mg/kg oral gavage, pre-dose 2.13) of 1.53 µg/g and an NAM concentration ([2]; 24 hr after 500 mg/kg oral gavage, pre-dose 52.5) of 46.6 µg/g. The NAD concentration ([2]; 24 hr after 500 mg/kg oral gavage, pre-dose 713) was 731 µg/g and the NAAD concentration ([2]; 24 hr after 500 mg/kg oral gavage) was “BDL”.
